According to article PMC3827244, “An Ultrasensitive High Throughput Screen for DNA Methyltransferase 1-Targeted Molecular Probes” (PLoS ONE, 2013):
Like-named read-outs stand apart in the source and are kept apart here.

Columns and labels:
[1] = molecular target: T1, DNMT1 (amino acids 621–1616) (Homo sapiens, UniProt P26358); assay: Validation of HTS hits, endonuclease-coupled DNA methylation assay; format: biochemical; design: Percent Activity: concentration or dose not given beside the values; details: for vo (initial velocity): first 12 minutes of GlaI corrected triplicate reaction traces; for Percent Activity: from initial velocity compared to DMSO control; for Normalized RFU: normalized to DMSO control (100) and GlaI control without DNMT1 (0); for RFU: relative fluorescence after 25-minute incubation at 37 °C, 10.9 µM test compound, three replicates
T1 construct: RFTS-lacking DNMT1, amino acids 621–1616; made in house
Description: DNMT activity was measured at 37°C using a fluorogenic DNA methylation assay. In short, a hemi-methylated hairpin oligonucleotide with a 5′ fluorophore and a 3′ quencher is methylated by addition of a DNMT and the methyl-donating co-factor, S-adenosyl methionine (SAM, HPLC-purified from Sigma). The fully methylated product is a substrate for the restriction endonuclease GlaI (Sibenzyme), which cleaves the oligonucleotide, releasing the fluorophore from the quencher and generating fluorescence. The oligonucleotide substrate (5′-FAM–[…]m[…]mCGmCATAGG-3′-Iowa Black, in which mC denotes 5-methyldeoxycytidylate residues), termed 8006, was synthesized by Integrated DNA Technologies, Coralville, IA. 96 well assays were performed in Co-Star black half-area plates and read in a Biotek Synergy Neo plate reader. 384 well assays were performed in Nunc flat-bottomed black plates and read in a PerkinElmer EnVision plate reader. FAM fluorescence was measured using excitation and emission wavelengths of 485 nm and 520 nm, respectively.
HTS against the Spectrum compound collection (Microsource, Gaylordsville, CT) was performed in eight 384 well plates. Using a Multiflo dispenser (Biotek), 75 µl of assay buffer (10.8 mM Tris-HCl pH 7.5, 1.08 mM MgCl2, 1.08 mM DTT, 108 mM potassium glutamate, 0.108 mg/ml BSA, 10.8 µM SAM, 21.6 nM oligonucleotide 8006, 5.4% glycerol) was dispensed into each well. 1 µl of each compound at 880 µM in DMSO (columns 3–22) or DMSO (columns 1, 2, 23 and 24) was added to assay plates using a Microlab Star liquid handling robot (Hamilton) and the plate was incubated at 37°C for 10 minutes. Following this warming step, 5 µl enzyme solution (either a DNMT1-containing solution of 20 mM Tris-HCl, pH 7.5, 300 mM NaCl, 2 mM DTT, 49 nM DNMT1 (amino acids 621–1616), 0.08 U/µl GlaI, 30% glycerol to columns 2–23 or a GlaI control solution of 20 mM Tris-HCl, pH 7.5, 300 mM NaCl, 2 mM DTT, 0.08 U/µl GlaI, 30% glycerol to columns 1 and 24) was added and the plate was again incubated at 37°C for 25 minutes. […] Each 384 well plate contained two columns of negative (n) and positive (p) controls for inhibitor activity. Columns 2 and 23 were the n controls with DMSO without test compound. Columns 1 and 24 were the p controls without DNMT1. Thus, 320 compounds were assayed per 384 well plate in columns 3–22.
Data across the screen were normalized to the p (0% DNMT1 activity) and n (100% DNMT1 activity) controls on each plate. […] Validation assays (81 µl total volume, identical buffer conditions to those used in the HTS screen) were performed in triplicate in 96 well plates with FAM fluorescence measured over the course of 1 hour. A control containing GlaI in the absence of DNMT1 was subtracted from each assay condition. Corrected assay traces were plotted and compared to DMSO-containing control traces in Prism (GraphPad Software, Inc).

[2] = molecular target: T1, DNMT1 (amino acids 621–1616); assay: Differential scanning fluorimetry (DSF) assay; format: binding; details: 100 µM compound; for Tm: 2 µM DNMT1, no DNA or SAM, DMSO 46.5 ± 0.1; for ∆Tm: shift versus DMSO control
Description: DSF [32] was used to assess the ability of the validated inhibitors to bind directly to DNMT1 in the absence of DNA and SAM and alter the observed melting temperature (Tm). Assays (25 µl) were conducted in triplicate in a Bio-Rad C1000 Thermal Cycler – CFX Real-Time System using the FRET channel and contained 50 mM HEPES pH 7.5, 150 mM NaCl, 2 µM DNMT1 (amino acids 621–1616), 5X Sypro Orange (Invitrogen Molecular Probes), 100 µM compound, and 1% DMSO. A DMSO control assay in the absence of compounds was also examined. Temperature was increased from 25 to 95°C by 0.5°C per minute. Fluorescence traces were exported and analyzed by fitting to the Boltzmann equation in Prism to determine the Tm.

GlaI = GlaI counterscreen; format: biochemical; details: 11 µM test compound; for Initial Velocity: 5 nM oligonucleotide 8007, 0.2 U GlaI; for Percent Activity: compared to DMSO
Description: GlaI inhibitors were identified and excluded using a fluorescence-based assay. Duplicate assays (80 µl) were conducted in 96 well plates. Assays contained 10 mM Tris-HCl pH 7.5, 100 mM potassium glutamate, 1 mM MgCl2, 1 mM DTT, 0.1 mg/mL BSA, 5% glycerol, 5 nM oligonucleotide 8007 (5′-FAM-CCTATGmCGm[…]mCGmCATAGG-3′-Iowa Black, where mC denotes 5-methyldeoxycytidylate residues, Integrated DNA Technologies, Coralville, IA), 0.2 U GlaI, 11 µM test compound and 1.2% DMSO. Reactions were initiated by the addition of GlaI. Cleavage of the oligonucleotide releases the 5′ FAM fluorophore from the 3′ Iowa Black quencher and generates fluorescence. A control reaction in the absence of GlaI was subtracted from each assay condition to account for background fluorescence of the internally quenched substrate. Corrected time courses were fitted in Prism.

CD-DNMT3A/DNMT3L complex = molecular target: T2, CD-DNMT3A/DNMT3L complex (Homo sapiens, UniProt Q9Y6K1); assay: Compound selectivity, endonuclease-coupled DNA methylation assay; format: biochemical; details: 20 µM inhibitor; for Percent activity, DNMT3A/DNMT3L Complex: 20 nM methyltransferase, 0.25 mM SAM
T2 construct: CD-DNMT3A; amino acids 611–912; His tag (N); made in house; host or cells: Rosetta 2(DE3)pLysS (E. coli) for CD-DNMT3A
Description: Triplicate assays (100 µl) containing 0.25 mM SAM, 0.2 µM oligonucleotide 8006, 0.8 U GlaI, 20 nM methyltransferase, 20 µM inhibitor and 1% DMSO were conducted in 96 well plates. Following enzyme addition, assay plates were incubated at 37°C for 75 min and fluorescence was measured in a BioTek Neo plate reader. A control containing only GlaI was subtracted from each assay. […] Percent activity was determined by comparing product formation to a DMSO containing control assay.

[3] = molecular target: T1, DNMT1 (amino acids 621–1616); assay: Detergent test, endonuclease-coupled DNA methylation assay; format: biochemical; details: 5 µM compound
From the text: The effect of detergent on observed DNMT1 inhibition was examined using the endonuclease-coupled DNA methylation assay. […] A control containing GlaI in the absence of DNMT1 was subtracted from each assay condition. Corrected assay traces were fitted in Prism.

[4] = absence of 0.01% Triton X-100, read-out: Percent activity, 0.01% Triton X-100 -
[5] = presence of 0.01% Triton X-100, read-out: Percent activity, 0.01% Triton X-100 +

T1 sequence (P26358 621-1616): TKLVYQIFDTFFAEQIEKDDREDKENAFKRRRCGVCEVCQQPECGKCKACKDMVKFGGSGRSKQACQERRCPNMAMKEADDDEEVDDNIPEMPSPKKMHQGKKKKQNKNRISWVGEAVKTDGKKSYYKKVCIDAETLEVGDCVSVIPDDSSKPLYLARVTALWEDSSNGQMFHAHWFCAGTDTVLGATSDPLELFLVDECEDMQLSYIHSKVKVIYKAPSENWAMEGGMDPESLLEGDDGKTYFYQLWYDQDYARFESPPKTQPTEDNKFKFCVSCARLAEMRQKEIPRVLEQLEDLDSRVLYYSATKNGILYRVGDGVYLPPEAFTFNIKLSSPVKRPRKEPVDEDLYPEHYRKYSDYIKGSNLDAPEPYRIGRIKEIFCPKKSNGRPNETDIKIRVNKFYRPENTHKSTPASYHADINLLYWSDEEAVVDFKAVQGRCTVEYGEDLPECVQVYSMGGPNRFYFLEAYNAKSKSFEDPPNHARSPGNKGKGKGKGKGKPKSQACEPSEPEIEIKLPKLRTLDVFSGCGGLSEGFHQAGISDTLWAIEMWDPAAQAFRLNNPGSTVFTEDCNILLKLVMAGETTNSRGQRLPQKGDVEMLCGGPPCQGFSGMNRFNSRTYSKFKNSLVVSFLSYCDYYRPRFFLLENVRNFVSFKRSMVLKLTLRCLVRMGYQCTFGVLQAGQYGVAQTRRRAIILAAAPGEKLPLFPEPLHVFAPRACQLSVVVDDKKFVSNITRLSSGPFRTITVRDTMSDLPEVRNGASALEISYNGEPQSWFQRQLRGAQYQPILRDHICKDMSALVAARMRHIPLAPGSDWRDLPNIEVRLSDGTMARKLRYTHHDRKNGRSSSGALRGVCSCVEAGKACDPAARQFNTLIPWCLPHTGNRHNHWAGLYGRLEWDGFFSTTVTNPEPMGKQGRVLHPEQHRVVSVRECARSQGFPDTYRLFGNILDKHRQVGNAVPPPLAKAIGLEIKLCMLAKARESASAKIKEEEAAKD
T2 sequence (Q9Y6K1 611-912): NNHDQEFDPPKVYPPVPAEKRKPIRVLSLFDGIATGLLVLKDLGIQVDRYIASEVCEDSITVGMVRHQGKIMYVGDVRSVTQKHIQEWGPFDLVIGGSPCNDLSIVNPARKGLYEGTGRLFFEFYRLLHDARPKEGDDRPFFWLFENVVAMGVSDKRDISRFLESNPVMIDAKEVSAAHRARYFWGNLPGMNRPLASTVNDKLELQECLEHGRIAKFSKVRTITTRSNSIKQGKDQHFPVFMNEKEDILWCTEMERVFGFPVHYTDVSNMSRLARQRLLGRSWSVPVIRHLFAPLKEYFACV
T2 sequence (Q9UJW3 whole entry partner, the tested form may be a part): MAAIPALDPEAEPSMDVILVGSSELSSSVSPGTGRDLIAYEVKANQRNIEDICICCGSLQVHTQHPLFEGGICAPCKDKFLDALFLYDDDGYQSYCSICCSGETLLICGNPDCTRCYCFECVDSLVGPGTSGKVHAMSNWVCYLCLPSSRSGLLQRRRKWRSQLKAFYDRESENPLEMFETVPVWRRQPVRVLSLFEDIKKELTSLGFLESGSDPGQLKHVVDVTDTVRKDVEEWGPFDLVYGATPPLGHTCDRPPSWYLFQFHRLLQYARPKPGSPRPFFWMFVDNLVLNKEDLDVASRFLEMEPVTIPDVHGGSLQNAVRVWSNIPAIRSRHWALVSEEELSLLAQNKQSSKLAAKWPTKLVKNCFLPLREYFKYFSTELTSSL

Structure (SMILES) | vo (initial velocity) [1] [RFU/min] | Percent Activity [1] [%] | Normalized RFU [1] | RFU [1] [RFU] | Tm [2] | ∆Tm [2] | Initial Velocity (GlaI) [RFU/min] | Percent Activity (GlaI) [%] | selectivity for DNMT1 over DNMT3A/DNMT3L (CD-DNMT3A/DNMT3L complex) [fold] | Percent activity, DNMT3A/DNMT3L Complex (CD-DNMT3A/DNMT3L complex) [%] | remaining activity at 5 µM [3, 4] [%] | remaining activity at 5 µM [3, 5] [%]
CC(=O)NCCc1ccc(O)c(-c2c(O)c(O)c3c(c2O)C(=O)c2c(cc(O)c(C(=O)O)c2C(=O)O)C3=O)c1 [Cmpd 40, Laccaic acid A] | 6 ± 1 | 11 | 5 | 602 ± 4 | 48.5 ± 0.1 ºC | +2.0 ºC | 22 ± 3 | 79 | ~4 | 80±10 | 56 | 58
O=C(O)C(S)C(S)C(=O)O (centres unmarked) [Cmpd 51] | 5 ± 1 | 9 | 6 | 612 ± 55 | 49.0 ± 0.1 ºC | +2.5 ºC | 25 ± 1 | 89 |  | 61±12 | 10 | 8
